Results from patent publication US20190307749A1, “Mitochondria-Division Inhibitor 1 Protects Against Amyloid-B Induced Mitochondrial Fragmentation and Synaptic Damage in Alzheimer's Disease” (Texas Tech University System, priority 2018, published 2019).

Columns and labels:
[1] = tested on: mouse neuroblastoma (N2a) cells; assay: Immunoblotting analysis of mitochondrial dynamics, biogenesis and synaptic proteins; assay type: cell-based
Method: (§1) Tissue culture: The N2a cells were grown for 3 days in a serum-free medium (1:1 mixture of DMEM and OptiMEM, plus penicillin and streptomycin [Invitrogen, Carlsbad, Calif., USA]) until the cells developed neuronal processes.
[…] of protein was resolved from each group of cells on a 4-12% Nu-PAGE gel (Invitrogen). The resolved proteins were transferred to […] (Novax Inc., San Diego, Calif., USA) and were then incubated for 1 hour at room temperature with a blocking buffer (5% dry milk dissolved in a TBST buffer). The PVDF membranes were incubated overnight with primary antibodies (see Table 2) and washed 3 times with a TBST buffer at 10-minute intervals. They were then incubated for 2 hours with appropriate secondary antibodies, followed by 3 additional washes at 10-minute intervals. Mitochondrial and synaptic proteins were detected with cheminilumniscence reagents (Pierce Biotechnology, Rockford, Ill., USA), and the bands from immunoblots were quantified on a Kodak scanner, following manufacturer's instructions (ID Image Analysis Software, Kodak Digital Science, Kennesaw, Ga., USA), and the gel images were analyzed from gel images captured with a Kodak digital science CD camera. The lanes were marked to define the positions and specific regions of the bands. An ID fine-band command was used to locate and to scan the bands in each lane and to record the readings.

[2] = tested on: N2a cells; assay: Cytochrome c oxidase activity; assay type: cell-based, mouse
Method: as §1
Cytochrome c oxidase activity: Cytochrome oxidase activity was measured in each of the 5 groups of N2a cells. Enzyme activity was assayed spectrophotometrically using a Sigma Kit (Sigma-Aldrich) following manufacturer's instructions. […] The decrease in absorbance at […] was recorded for 1-min reactions at 10-sec intervals. Cytochrome oxidase activity was measured according to the following formula: mU/mg total mitochondrial protein=(A/min sample−(A/min blank)×1.1 mg protein×21.84). The protein concentrations were determined following the BCA method.

[3] = tested on: GTPase Drp1; details: by blocking the self-assembly of Drp1; reference [34]; cited from earlier work
[4] = tested on: mouse neuroblastoma (N2a) cells; assay: Quantitative real-time RT-PCR: mRNA expression of mitochondrial dynamics, biogenesis and synaptic genes; assay type: cell-based; details: vs Aβ42 treated cells
[5] = tested on: N2a cells; assay: Lipid peroxidation assay (4-hydroxy-2-nonenol, HNE-His ELISA); assay type: cell-based, mouse
Method: as §1
Lipid peroxidation assay: Lipid peroxidates are unstable indicators of oxidative stress in the brain. The final product of lipid peroxidation is 4-hydroxy-2-nonenol (HNE), which was measured in the N2a cell lysates prepared from cell pellets of control and treatment groups. The inventors used an HNE-His ELISA kit (Cell BioLabs, Inc., San Diego, Calif., USA), as described in Manczak and Reddy. Briefly, freshly prepared protein as added to a 96-well protein binding plate and incubated overnight at 4° C. The protein then washed 3 times with a buffer. After the last wash, the anti-HNE-His antibody was added to the protein in the wells, incubated for 2 hours at room temperature, and then washed again 3 times. The samples were then incubated with a secondary antibody conjugated with peroxidase for 2 hours at room temperature, followed by incubation with an enzyme substrate. Optical density was measured (at 450 nm) to quantify the level of HNE.

[6] = tested on: N2a cell mitochondria; assay: Mitochondrial ATP levels (luciferase bioluminescence); assay type: cell-based, mouse; details: N2a cells
Method: as §1
ATP levels: ATP levels were measured in N2a cell mitochondria from the treatment groups using an ATP determination kit (Molecular Probes). A bioluminescence assay was used, based on the reaction of ATP with recombinant firefly luciferase and its substract luciferin. Luciferase catalyzes the formation of light from ATP and luciferin. It is the emitted light that is linearly related to the concentration of ATP, which is measured with a luminometer. ATP levels were measured from mitochondrial pellets using a standard curve method.

[7] = Aβ42 6 hrs then Mdivi1 24 hrs (Aβ42+Mdivi1), vs Aβ42 treated cells
[8] = Aβ42 6 hrs then Mdivi1 24 hrs (Aβ42+Mdivi1), vs untreated N2a cells
[9] = Mdivi1 24 hrs or Aβ42 20 μM 6 hrs alone, vs untreated N2a cells
[10] = Mdivi1 24 hrs then Aβ42 6 hrs (Mdivi1+Aβ42), vs Aβ42 treated cells
[11] = Mdivi1 24 hrs then Aβ42 6 hrs (Mdivi1+Aβ42), vs untreated N2a cells
[12] = Aβ42 6 hrs then Mdivi1 24 hrs (Aβ42+Mdivi1)

## COc1cc(-n2c(S)nc3ccccc3c2=O)c(Cl)cc1Cl [Mdivi1, 3-(2,4-Dichloro-5-methoxyphenyl)-2,3-dihydro-2-thioxo-4(1H)-quinazolinone]
[1]; [7]
  Drp1 protein level: significantly lower
  Fis1 protein level: significantly lower
  Mfn1 protein level: significantly higher
  Mfn2 protein level: significantly higher
  Nrf1 protein level: significantly higher
  Opa1 protein level: significantly higher
  PGC1α protein level: significantly higher
  PSD95 protein level: significantly higher
  Synaptophysin protein level: significantly higher
  TFAM protein level: significantly higher
[1]; [8]
  Drp1 protein level: Unchanged
  Fis1 protein level: Unchanged
[1]; [9]
  Drp1 protein level: significantly lower
  Fis1 protein level: significantly lower
  Mfn1 protein level: significantly higher
  Mfn2 protein level: significantly higher
  Nrf2 protein level: significantly higher
  Opa1 protein level: significantly higher
  PGC1α protein level: significantly higher
  TFAM protein level: significantly higher
[1]; [10]
  Drp1 protein level: significantly lower
  Fis1 protein level: significantly lower
  Mfn1 protein level: significantly higher
  Mfn2 protein level: significantly higher
  Nrf1 protein level: significantly higher
  Nrf2 protein level: significantly higher
  Opa1 protein level: significantly higher
  PGC1α protein level: significantly higher
  PSD95 protein level: significantly higher
  Synaptophysin protein level: significantly higher
  TFAM protein level: significantly higher
[1]; [11]
  Drp1 protein level: unchanged
  Fis1 protein level: unchanged
[2]; Aβ42 6 hrs then Mdivi1 24 hrs (Aβ42+Mdivi1), vs cells treated with Aβ42 alone
  Cytochrome oxidase activity: significantly increased
[2]; [8]
  Cytochrome oxidase activity: increased levels
[2]; [9]
  Cytochrome oxidase activity: increased levels
[2]; Mdivi1 24 hrs then Aβ42 6 hrs (Mdivi1+Aβ42), vs cells treated with Aβ42 alone
  Cytochrome oxidase activity: significantly increased
[2]; [11]
  Cytochrome oxidase activity: increased levels
[3]
  GTPase Drp1 activity: inhibits
[4]; [12]
  Nrf2 mRNA fold change: 2.0 fold
  PSD95 mRNA fold change: 8.6 fold
  TFAM mRNA fold change: 2.9 fold
[4]; Mdivi1 24 hrs then Aβ42 6 hrs (Mdivi1+Aβ42)
  Mfn1 mRNA fold change: 2.6 fold
[5]; Aβ42 6 hrs then Mdivi1 24 hrs (Aβ42+Mdivi1), vs N2a cells treated only with Aβ42
  Lipid peroxidation levels (4-hydroxy-2-nonenol): Significantly lower
[5]; [9]
  Lipid peroxidation levels (4-hydroxy-2-nonenol): significantly lower
[5]; Mdivi1 24 hrs then Aβ42 6 hrs (Mdivi1+Aβ42), vs N2a cells treated only with Aβ42
  Lipid peroxidation levels (4-hydroxy-2-nonenol): Significantly lower
[6]; Aβ42 6 hrs then Mdivi1 24 hrs (Aβ42+Mdivi1), vs Aβ42-treated N2a cells (FIG. 7B)
  Mitochondrial ATP levels: Significantly higher
[6]; [9]
  Mitochondrial ATP levels: Significantly increased
[6]; Mdivi1 24 hrs then Aβ42 6 hrs (Mdivi1+Aβ42), vs Aβ42-treated N2a cells (FIG. 7B)
  Mitochondrial ATP levels: Significantly higher
